Experimental data published in the supplement of paper PMC11451515.

Tested on: SEM cells
Experiment: cell viability relative to DMSO control; higher = less cytotoxic
Conditions: 48 h
How it was run: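 Viability values are per-plate percentages of DMSO wells, with background from cell-free wells. Library compounds in DMSO were pin-dosed, in an 11-point threefold series from 47 μM to 0.79 nM, onto NOMO1 or SEM (500 cells/well) or P12-Ichikawa (1000 cells/well) leukemia cells in 1536-well plates (5 μl). Those cells had been adapted for at least four passages in each medium, and CellTiter-Glo One luminescence was read after 48 h at 37°C.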

[1] = HPLM + 10% dialyzed FBS, 0.000781 µM
[2] = HPLM + 10% dialyzed FBS, 0.00234 µM
[3] = HPLM + 10% dialyzed FBS, 0.00702 µM
[4] = HPLM + 10% dialyzed FBS, 0.0211 µM
[5] = HPLM + 10% dialyzed FBS, 0.0632 µM
[6] = HPLM + 10% dialyzed FBS, 0.19 µM
[7] = HPLM + 10% dialyzed FBS, 0.569 µM
[8] = HPLM + 10% dialyzed FBS, 1.71 µM
[9] = HPLM + 10% dialyzed FBS, 5.12 µM
[10] = HPLM + 10% dialyzed FBS, 15.4 µM
[11] = HPLM + 10% dialyzed FBS, 46.1 µM
[12] = RPMI 5 mM glucose + 10% FBS, 0.000781 µM
[13] = RPMI 5 mM glucose + 10% FBS, 0.00234 µM
[14] = RPMI 5 mM glucose + 10% FBS, 0.00702 µM
[15] = RPMI 5 mM glucose + 10% FBS, 0.0211 µM
[16] = RPMI 5 mM glucose + 10% FBS, 0.0632 µM
[17] = RPMI 5 mM glucose + 10% FBS, 0.19 µM
[18] = RPMI 5 mM glucose + 10% FBS, 0.569 µM
[19] = RPMI 5 mM glucose + 10% FBS, 1.71 µM
[20] = RPMI 5 mM glucose + 10% FBS, 5.12 µM
[21] = RPMI 5 mM glucose + 10% FBS, 15.4 µM
[22] = RPMI 5 mM glucose + 10% FBS, 46.1 µM
[23] = RPMI 5 mM glucose + 10% dialyzed FBS, 0.000781 µM
[24] = RPMI 5 mM glucose + 10% dialyzed FBS, 0.00234 µM
[25] = RPMI 5 mM glucose + 10% dialyzed FBS, 0.00702 µM
[26] = RPMI 5 mM glucose + 10% dialyzed FBS, 0.0211 µM
[27] = RPMI 5 mM glucose + 10% dialyzed FBS, 0.0632 µM
[28] = RPMI 5 mM glucose + 10% dialyzed FBS, 0.19 µM
[29] = RPMI 5 mM glucose + 10% dialyzed FBS, 0.569 µM
[30] = RPMI 5 mM glucose + 10% dialyzed FBS, 1.71 µM
[31] = RPMI 5 mM glucose + 10% dialyzed FBS, 5.12 µM
[32] = RPMI 5 mM glucose + 10% dialyzed FBS, 15.4 µM
[33] = RPMI 5 mM glucose + 10% dialyzed FBS, 46.1 µM

Row | Compound | cell viability [1] | cell viability [2] | cell viability [3] | cell viability [4] | cell viability [5] | cell viability [6] | cell viability [7] | cell viability [8] | cell viability [9] | cell viability [10] | cell viability [11] | cell viability [12] | cell viability [13] | cell viability [14] | cell viability [15] | cell viability [16] | cell viability [17] | cell viability [18] | cell viability [19] | cell viability [20] | cell viability [21] | cell viability [22] | cell viability [23] | cell viability [24] | cell viability [25] | cell viability [26] | cell viability [27] | cell viability [28] | cell viability [29] | cell viability [30] | cell viability [31] | cell viability [32] | cell viability [33]
1 | C[C@H]1Oc2cc(cnc2N)-c2c(nn(C)c2C#N)CN(C)C(=O)c2ccc(F)cc21 | 111% | 138% | 114% | 118% | 109% | 126% | 124% | 121% | 117% | 107% | 93.7% | 110% | 108% | 110% | 109% | 78.1% | 85.3% | 102% | 110% | 97.4% | 81.5% | 60.3% | 118% | 128% | 115% | 130% | 131% | 133% | 145% | 132% | 129% | 122% | 116%
2 | C[C@@H](N)C1CC[C@@H](CC1)C(=O)NC2=CC=NC=C2 (stereo not given in full) | 91.8% | 117% | 107% | 108% | 103% | 106% | 129% | 129% | 119% | 122% | 120% | 94% | 99.3% | 99.8% | 90.3% | 103% | 108% | 112% | 115% | 104% | 109% | 113% | 93.7% | 107% | 111% | 121% | 117% | 114% | 131% | 120% | 114% | 116% | 114%
3 | CS[C@H]1SC[C@@H]2C(=O)N(C)[C@H](C(C)C)C(=O)OC[C@H](NC(=O)c3cnc4ccccc4n3)C(=O)N[C@H](C)C(=O)N(C)[C@H]1C(=O)N(C)[C@H](C(C)C)C(=O)OC[C@H](NC(=O)c1cnc3ccccc3n1)C(=O)N[C@H](C)C(=O)N2C | 81.1% | 59% | 37.5% | 14.2% | 7.27% | 7.08% | 7.54% | 7.91% | 7.3% | 6% | 5.18% | 76.5% | 47.9% | 25.6% | 9.07% | 6.95% | 7.44% | 7.22% | 7.34% | 7.64% | 6.82% | 5% | 66.4% | 44.7% | 34.2% | 11.8% | 7.65% | 8.72% | 8.82% | 8.65% | 8.6% | 7.68% | 5.52%
4 | C[C@H](Cc1ccc(O)c(O)c1)[C@@H](C)Cc1ccc(O)c(O)c1 | 123% | 121% | 113% | 116% | 130% | 116% | 29% | 118% | 122% | 105% | 28.8% | 117% | 110% | 105% | 104% | 117% | 103% | 37.3% | 118% | 128% | 101% | 6.24% | 144% | 113% | 119% | 128% | 131% | 116% | 36.6% | 109% | 112% | 109% | 7.68%
5 | Oc1ccc([C@@H]2Oc3ccc(O)cc3[C@@H]3CCC[C@@H]32)cc1 | 71.9% | 90.5% | 91.8% | 92% | 80.2% | 90.6% | 38.7% | 81.9% | 89.3% | 31.4% | 21.6% | 60.6% | 103% | 97.5% | 103% | 106% | 111% | 44.4% | 103% | 104% | 40.3% | 18.1% | 80.4% | 94.9% | 98.4% | 97% | 96.1% | 104% | 102% | 103% | 94.9% | 29% | 18.4%
6 | NC[C@H]1O[C@H](O[C@H]2[C@H](O)[C@@H](O[C@H]3O[C@H](CO)[C@@H](O)[C@H](N)[C@H]3O)[C@H](N)C[C@@H]2N)[C@H](N)C[C@@H]1O | 88.9% | 95.3% | 98.6% | 108% | 104% | 92.9% | 107% | 96.9% | 101% | 101% | 109% | 93.7% | 97.1% | 106% | 98.6% | 119% | 109% | 112% | 95.6% | 89% | 100% | 111% | 105% | 105% | 118% | 116% | 107% | 108% | 110% | 104% | 112% | 103% | 111%
7 | CCOC(=O)[C@@H](N)CCC(=O)N[C@@H](CSCc1ccccc1)C(=O)N[C@@H](C(=O)OCC)c1ccccc1 | 84.5% | 105% | 99.8% | 103% | 104% | 111% | 109% | 116% | 119% | 97.1% | 102% | – | – | – | – | – | – | – | – | – | – | – | – | – | – | – | – | – | – | – | – | – | –
8 | N=C(N)NC(=N)N1CCOCC1 | 97.7% | 97.2% | 112% | 98% | 99.1% | 105% | 109% | 103% | 86.4% | 98.9% | 112% | 94% | 94.5% | 99.7% | 96.2% | 105% | 104% | 113% | 93.4% | 71.2% | 100% | 106% | 104% | 114% | 107% | 104% | 106% | 100% | 111% | 93.6% | 114% | 92.3% | 110%
9 | CC[C@@H]1C(=O)N(C)c2cnc(Nc3ccc(C(=O)NC4CCN(C)CC4)cc3OC)nc2N1C1CCCC1 | – | – | – | – | – | – | – | – | – | – | – | 104% | 125% | 114% | 116% | 39% | 19.9% | 20.8% | 17.8% | 13.5% | 7.48% | 3.43% | 117% | 128% | 105% | 128% | 37.9% | 23.2% | 22.1% | 18.9% | 11.1% | 6.14% | 3.08%
10 | N[C@@H](Cc1ccc(O)c(O)c1)C(=O)O | 86.4% | 101% | 102% | 100% | 107% | 108% | 108% | 111% | 122% | 107% | 109% | 108% | 100% | 107% | 108% | 116% | 115% | 106% | 116% | 126% | 121% | 127% | 92.1% | 97.6% | 108% | 116% | 117% | 116% | 117% | 123% | 122% | 128% | 105%
11 | Cc1ccc(/C=N/NC(=O)c2ccccc2Oc2ccccc2)o1 | 102% | 101% | 87% | 85.8% | 109% | 96.9% | 89.6% | 94.9% | 93.5% | 91.7% | 90.9% | 107% | 98.2% | 93% | 106% | 102% | 104% | 99.4% | 104% | 93.6% | 98.6% | 90.5% | 147% | 102% | 91.7% | 102% | 91.8% | 101% | 97.5% | 97.4% | 66.5% | 92.5% | 73.4%
12 | O=C1N\C=N/C2=C1C=N[NH]2 | 74.3% | 77.4% | 74% | 95.1% | 70.6% | 90.7% | 77.2% | 22.6% | 93.8% | 94.5% | 41.9% | 70.2% | 79% | 69.4% | 90.4% | 62.5% | 91.7% | 81.2% | 20.2% | 81.6% | 88.8% | 71.8% | 74.8% | 86.2% | 81.4% | 104% | 79.1% | 99.2% | 82.1% | 32.9% | 96.1% | 86.7% | 47.4%
13 | COc1ccc2[nH]cc(CCNC(C)=O)c2c1 | 91% | 110% | 113% | 116% | 127% | 114% | 114% | 101% | 103% | 117% | 106% | 112% | 123% | 124% | 124% | 117% | 114% | 124% | 102% | 110% | 123% | 119% | 121% | 131% | 114% | 144% | 125% | 113% | 120% | 104% | 100% | 124% | 113%
14 | CC(C)n1cnc2c(NCCc3ccc(O)cc3)nc(-c3csc4ccccc34)nc21 | 105% | 91% | 99.5% | 114% | 114% | 139% | 116% | 122% | 122% | 39.8% | 10.4% | 111% | 103% | 102% | 108% | 101% | 125% | 129% | 99.2% | 77.2% | 8.37% | 8.04% | 106% | 97.7% | 103% | 110% | 114% | 127% | 132% | 122% | 57.7% | 11.4% | 7.89%
15 | Cc1cnc(Nc2ccc(N3CCN(C)CC3)cc2)nc1Nc1cccc([S+](=O)([O-])NC(C)(C)C)c1 | 110% | 110% | 118% | 114% | 116% | 94.9% | 85.1% | 27.2% | 7.39% | 2.61% | 3.12% | 116% | 113% | 107% | 114% | 104% | 90.2% | 77.8% | 22.8% | 5.43% | 2.59% | 3.4% | 106% | 105% | 119% | 110% | 101% | 88.4% | 97.9% | 26.2% | 7.58% | 2.94% | 3.71%
16 | CCOC(=O)O[C@]1(C(=O)OCCl)CC[C@H]2[C@@H]3CCC4=CC(=O)C=C[C@]4(C)[C@H]3[C@@H](O)C[C@@]21C | 84.2% | 92.5% | 93.3% | 102% | 101% | 99.3% | 95.6% | 96% | 102% | 88.7% | 100% | 82.9% | 85.4% | 87.9% | 84.6% | 92.7% | 87.3% | 85.1% | 109% | 107% | 96.1% | 96.6% | 83.5% | 87.4% | 93.6% | 85.7% | 85.4% | 94.8% | 86.1% | 89.3% | 96.4% | 99.2% | 92%
